From patent publication US5753631A, “Intercellular adhesion mediators” (Cytel Corporation, priority 1995, dated 1998) come the findings set out here.

Where two headings read alike, the source gives them in different places.

The target of one assay is T1, P-Selectin (Homo sapiens, UniProt P16109).
T1 construct: endogenous in cells
T1 sequence (P16109 42-830): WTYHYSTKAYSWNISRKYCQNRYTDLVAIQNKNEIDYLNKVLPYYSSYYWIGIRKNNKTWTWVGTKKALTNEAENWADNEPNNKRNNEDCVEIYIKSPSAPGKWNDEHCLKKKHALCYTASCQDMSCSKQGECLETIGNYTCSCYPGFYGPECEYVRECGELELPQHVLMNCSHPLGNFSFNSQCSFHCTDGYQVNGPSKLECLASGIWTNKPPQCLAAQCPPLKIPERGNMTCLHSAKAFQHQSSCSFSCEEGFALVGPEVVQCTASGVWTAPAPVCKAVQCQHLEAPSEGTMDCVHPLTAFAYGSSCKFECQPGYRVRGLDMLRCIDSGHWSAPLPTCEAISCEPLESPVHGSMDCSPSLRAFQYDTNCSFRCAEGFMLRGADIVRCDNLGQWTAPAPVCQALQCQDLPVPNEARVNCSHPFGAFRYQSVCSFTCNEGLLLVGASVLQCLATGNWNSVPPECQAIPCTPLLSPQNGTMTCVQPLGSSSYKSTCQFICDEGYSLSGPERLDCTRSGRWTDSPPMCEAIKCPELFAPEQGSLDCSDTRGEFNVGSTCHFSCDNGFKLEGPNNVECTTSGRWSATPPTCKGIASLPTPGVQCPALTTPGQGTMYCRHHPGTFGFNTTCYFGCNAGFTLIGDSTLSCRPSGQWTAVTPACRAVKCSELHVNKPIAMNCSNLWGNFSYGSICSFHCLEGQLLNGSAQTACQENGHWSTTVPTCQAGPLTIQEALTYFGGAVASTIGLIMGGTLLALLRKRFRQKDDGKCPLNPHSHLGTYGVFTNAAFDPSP
As to the kind of experiment: Oligosaccharide/polysaccharide inhibition of neutrophil adhesion to thrombin activated platelets. Format: cell-based. To be noted: for IC50: read-out: AMOUNT REQUIRED FOR 50% INHIBITION (converted). The protocol:
Briefly, platelets and neutrophils were isolated by the methods described above. Platelets were activated with thrombin and then incubated with dilutions of various oligosaccharides. Neutrophils were added, and the effect of the saccharides on the adhesion of neutrophils to activated platelets was determined.
1. Platelets were isolated as described above and were activated (2×10^8 /ml) by incubation for 20 min at room temperature with thrombin at a final concentration of 0.25 U/ml.
2. Neutrophils were isolated by layering heparinized blood over Mono-Poly Resolving Medium (Ficoll-Hypaque-Flow Laboratories), followed by centrifugation for 25 min at 2000 rpm and then, a further 25 min at 2500 rpm as described above.
3. For the assay, 20 μl of the platelet suspension (2×10^8 /ml) was placed in a microcentrifuge tube. An equal volume of the oligosaccharide preparations at concentrations from 200 μg/ml to 0.3 μg/ml, or of glycolipid-liposome preparations (prepared as described above), at concentrations from 2 μg/ml to 0.25 μg/ml, was added and the tubes were allowed to stand at room temperature for 20 min. Twenty μl of the neutrophil preparation (2×10^6 /ml) was then added and the tubes were allowed to stand for a further 20 min at room temperature.
4. Adhesion of activated platelets to the neutrophils was assessed microscopically. One hundred neutrophils were evaluated. They were scored as positive if 2 or more platelets were attached and negative if less than 2 platelets were bound. The percent of cells with 2 or more bound platelets was calculated.
Briefly, platelets and neutrophils were isolated by the methods described above. Platelets were activated with thrombin and then incubated with dilutions of various oligosaccharides. Neutrophils were added and the effect of the saccharides on the adhesion of neutrophils to activated platelets was determined.
Platelets were isolated as described above and were activated (2×10^8 /ml) by incubation for 20 min at room temperature with thrombin at a final concentration of 0.25 U/ml.
Neutrophils were isolated by layering heparinized blood over Mono-Poly Resolving Medium (Ficoll-Hypaque, Flow Laboratories), followed by centrifugation for 25 min at […] and then, a further 25 min at 2500 rpm as described above.
For the assay, 20 μl of the platelet suspension (2×10^8 /ml) was placed in an Eppendorf centrifuge tube. An equal volume of the oligosaccharide preparations at concentrations from 500 μg/ml to 2.0 μg/ml was added and the tubes were allowed to stand at room temperature for 20 min. Twenty […] of the neutrophil preparation (2×10^6 /ml) was then added and the tubes were allowed to stand for a further 20 min at room temperature.
Adhesion of activated platelets to the neutrophils was assessed microscopically. One hundred neutrophils were evaluated. They were scored as positive if 2 or more platelets were attached and negative if less than 2 platelets were bound. The percent of cells with 2 or more bound platelets was calculated.

For assay [1], the system named is CVF-induced acute lung injury. Nature of the assay: Cobra venom factor (CVF)-induced acute lung injury in the rat. Format: in vivo. To be noted: in words; prior to CVF, 30 minutes. The protocol:
Groups of rats were pretreated with either vehicle, SLN-OH (0.6 mg/Kg), or with SLX-OH (0.6 mg/Kg) 5 minutes prior to administration of either CVF or PBS. Each bar represents the mean of 6 animals and vertical lines represent the standard error of the mean.
Groups of rats were pretreated with either vehicle or Z at the indicated doses 5 minutes prior to administration of CVF or PBS. Each point represents the mean of 6 animals and vertical lines represent the standard error of the mean.
The intravenous injection of CVF produces intravascular complement activation which results in lung injury, defined as an increase in neutrophil accumulation within the lung, an increase in pulmonary vascular permeability and in lung hemorrhage. It is likely that intravascular complement activation results in the generation of a wide range of inflammatory mediators. Of particular relevance to the studies described here is generation of the split fifth complement component, C5a, which can stimulate the release of histamine from circulating basophils and tissue mast cells. […] The expression of selectins, including P-selectin, is a necessary first step in the process of leukocyte adherence to vascular endothelium.
Animals were dosed with different oligosaccharide preparations or phosphate buffered saline (PBS) five minutes before administration of cobra venom factor (20 units/Kg, i.v.). Included in this material was an aliquot of ^125 I-bovine serum albumin (0.5 μCi) and ^51 Cr labelled autologous red blood cells (0.5 μCi) for measuring plasma extravasation and hemorrhage respectively. Thirty minutes after administration of the cobra venom factor the animals were anesthetized with ketamine hydrochloride (10 mg/Kg) and exsanguinated via the posterior vena cava. The lung vasculature was then perfused through the right cardiac ventricle with 10 mL of PBS. The lungs were removed and the amount of radioactivity remaining within the tissue assessed with a gamma scintillation counter. Increased pulmonary vascular permeability was measured as the ratio of ^125 I in lung tissue compared with the amount present in 1 mL of venous blood obtained at the time of death. Lung hemorrhage was measured as the ratio of ^51 Cr in lung tissue compared with the amount present in 1 mL of venous blood obtained at the time of death. Neutrophil accumulation in lungs was determined by measuring the myeloperoxidase activity of lungs homogenized in PBS. Myeloperoxidase activity in lung supernatants was assayed by measuring the change in absorbance at 460 nm resulting from decomposition of H2 O2 in the presence of o-dianisidine

For assay [2], the system named is histamine induced leukocyte rolling in rat mesenteric venules. As to the kind of experiment: Histamine induced leukocyte rolling and adherence in rat mesenteric venules (intravital microscopy). Format: in vivo, rat (male Sprague-Dawley). The protocol:
Surgical procedure. Sixty-four male Sprague-Dawley rats (200-250 g) were maintained on a purified laboratory diet and fasted for 24 hours prior to the experiment. The animals were initially anesthetized with pentobarbital (65 mg/kg body weight), then a tracheotomy was performed to facilitate breathing during the experiment. The right carotid artery was cannulated and systemic arterial pressure was measured with a Statham (Oxnard, Calif.) P23A pressure transducer connected to the carotid artery cannula. Systemic blood pressure and heart rate were continuously recorded with a Grass physiologic recorder (Grass Instruments, Massachusetts). The left jugular vein was also cannulated for drug administration and blood sample collection. After a midline abdominal incision a segment of the mid-jejunum was exteriorized. All exposed tissue was moistened with saline-soaked gauze to minimize evaporation and dehydration.
Intravital microscopy. Rats were placed in a supine position on an adjustable plexiglass microscope stage and the mesentery was draped over an optically clear coverslip that allowed for observation of a 2 cm^2 segment of tissue. The temperature of the pedestal was maintained at 37° C. with a constant temperature circulator (Fisher Scientific, model 80). A small rubber gasket (area=3.14 cm^2) was placed on the mesentery and the outside area of contact between the gasket and mesentery was sealed (to prevent leakage of superfusate from the ring) with a mixture of high vacuum grease (Dow Corning Corp., Midland, Mich.) and white petrolatum (E. Fougera & Co., Melville, N.Y.). Rectal and mesenteric temperatures were continuously monitored using an electrothermometer. The exposed bowel wall was covered with Saran Wrap (Dow Chemical Co., Indiana), and the mesenteric tissue within the gasket was suffused with warmed bicarbonate-buffered saline (BBS; pH 7.4) that was bubbled with a mixture of 5% O2; 5% CO2; 90% N2.
An inverted microscope (Nikon Optiphoto, Japan) with a ×40 objective lens (Nikon Optiphoto, Japan) and a ×10 eyepiece was used to observe the mesenteric microcirculation. The mesentery was transilluminated with a 12 V-100 W direct current-stabilized light source. A video camera (Hitachi, VK-C150, Japan) mounted on the microscope projected the image onto a color monitor (Sony, PVM-2030, Japan), and the images were recorded using a video cassette recorder (Panasonic, NV8950, Japan). A video time-date generator (Panasonic, WJ810, Japan) projected the time, date, and stopwatch function onto the monitor.
Single unbranched venules with diameters ranging between 25 μm and 35 μm and a length>150 μm were selected for study. Venular diameter (Dv) was measured either on- or off-line using a video image-shearing monitor (IPM, La Mesa, Calif.). The number of adherent leukocytes was determined off-line during playback of videotaped images. A leukocyte was considered to be adherent to venular endothelium if it remained stationary for a period equal to or greater than 30 seconds. Adherent cells were expressed as the number per 100 μm length of venule. The number of emigrated leukocytes was also determined off-line during playback of videotaped images. Ary interstitial leukocytes present in the mesentery at the onset of the experiment were subtracted from the total number of leukocytes that accumulated during the course of the experiment. Leukocyte emigration was expressed as the number per microscopic field (1.7×10^-2 mm^2) or 150 μm length of venule. Rolling leukocytes were defined as those white blood cells that moved at a velocity less than that of erythrocytes in the same stream. The flux of rolling leukocytes was determined as the number of rolling leukocytes which crossed a fixed point on the venule over a given period of time. Leukocyte rolling velocity was determined from the time required for a leukocyte to roll along a given distance of the venule.

[3] abbreviates: Table 2, mean of three identical experiments.

With `CC(=O)N[C@H]1[C@H](O[C@H]2[C@@H](O)[C@@H](CO)O[C@@H](O[C@H]3[C@H](O)[C@@H](O)C(O)O[C@@H]3CO)[C@@H]2O)O[C@H](CO)[C@@H](O)[C@@H]1O[C@@H]1O[C@H](CO)[C@H](O)[C@H](O)[C@H]1O[C@@H]1O[C@@H](C)[C@@H](O)[C@@H](O)[C@@H]1O` (stereo partly drawn) [LNF I, reference compound], the “AMOUNT REQUIRED FOR 50% INHIBITION” value at P-Selectin (Table 6) is reported as “No Inhibition”.
As to `CC(=O)N[C@H]1[C@H](O[C@H]2[C@@H](O)[C@@H](CO)O[C@@H](O[C@H]3[C@H](O)[C@@H](O)C(O)O[C@@H]3CO)[C@@H]2O)O[C@H](CO)[C@@H](O[C@@H]2O[C@H](CO)[C@H](O)[C@H](O)[C@H]2O)[C@@H]1O[C@@H]1O[C@@H](C)[C@@H](O)[C@@H](O)[C@@H]1O` (stereo partly drawn) [LNF III (Le^x), reference compound], the IC50 at P-Selectin (Table 6) was 41 µM.
On to `CC(=O)N[C@H]1C(O)O[C@H](CO)[C@@H](O[C@@H]2O[C@H](CO)[C@H](O)[C@H](O)[C@H]2O)[C@@H]1O[C@@H]1O[C@@H](C)[C@@H](O)[C@@H](O)[C@@H]1O` (stereo partly drawn) [Le^x, reference compound], for which, on P-Selectin (setting [3]), the IC50 was 43 µM.
For `CC(=O)N[C@H]1[C@H]([C@H](O)[C@H](O)CO)O[C@@](O[C@H]2[C@@H](O)[C@@H](CO)O[C@@H](O[C@H]3[C@H](O)[C@@H](NC(C)=O)C(O)O[C@@H]3CO)[C@@H]2O)(C(=O)O)C[C@@H]1O` (stereo partly drawn) [SLN-OH, sialyl-N-acetyllactosamine, reference compound], the “effect on CVF-induced permeability, hemorrhage, MPO / lung injury” value in assay [1] is on record as “unaltered”.
`CC(=O)N[C@H]1[C@H](O[C@@H]2[C@@H](O)[C@H](O)O[C@H](CO)[C@@H]2O)O[C@H](CO)[C@@H](O[C@@H]2O[C@H](CO)[C@H](O)[C@H](O[C@]3(C(=O)O)C[C@H](O)[C@@H](NC(C)=O)[C@H]([C@H](O)[C@H](O)CO)O3)[C@H]2O)[C@@H]1O[C@@H]1O[C@@H](C)[C@@H](O)[C@@H](O)[C@@H]1O` [SLe^x (penta), NeuAcα2,3Galβ1,4-(Fucα1,3)GlcNacβ1,3Galβ]: the IC50 on P-Selectin (setting [3]) is 2.2 µM.
As to `NCCc1c[nH]cn1` [histamine], in assay [2] (histamine 10^-5 M), the Erythrocyte velocity was 1.8 ± 0.4 mm/sec, the Leukocyte adherence came out at 7.2 ± 1.1 per 100 μm, the Leukocyte emigration worked out at 2.5 ± 0.9 per field and the Venular diameter is given as 30 ± 1 μm. In assay [2] (histamine 10^-5 M), the Wall shear rate was 303 ± 64 s⁻¹; the “number of rolling leukocytes, fold increase” value is 10 -fold; the “recruitment of rolling leukocytes, fold increase” value is on record as 5 -fold; the “reduction of leukocyte rolling velocity” value stood at 50%. In assay [2] (histamine 10^-6 M), this compound returned an Erythrocyte velocity of 2.4 ± 0.2 mm/sec, a Leukocyte adherence of 4.8 ± 0.7 per 100 μm, a Leukocyte emigration of 2.0 ± 0.7 per field and a Venular diameter of 30 ± 1 μm. In assay [2] (histamine 10^-6 M), the Wall shear rate turned out to be 401 ± 91 s⁻¹. Further, in assay [2] (histamine 10^-6 M and 10^-5 M), the “effect on number of adherent leukocytes” value is given as “Significant increases in the number of adherent leukocytes”. Further, in assay [2] (histamine 10^-7 M), the Erythrocyte velocity came out at 2.8 ± 0.2 mm/sec, the Leukocyte adherence amounted to 2.8 ± 0.7 per 100 μm, the Leukocyte emigration stood at 1.5 ± 0.7 per field and the Venular diameter was found to be 30 ± 1 μm. This compound displayed a Wall shear rate in assay [2] (histamine 10^-7 M) of 476 ± 38 s⁻¹.
